From patent US20220162192A1 (ESCAPE Bio, Inc., priority 2019, published 2022)
Like-named read-outs stand apart in the source and are kept apart here.

Experiments:
[1] = target: T1, Recombinant G2019S-LRRK2 protein (Homo sapiens, UniProt Q5S007, G2019S); test: LanthaScreen Kinase Activity Assay (TR-FRET), G2019S-LRRK2; format: biochemical; settings: class symbols; 25 μM ATP, 400 nM LRRKtide, 2.9 nM kinase, 60 min at room temperature
T1 construct: purchased Life Technologies PV4881
How it was run: (§1)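 Recombinant wild-type or G2019S LRRK2 (2.9 nM final) phosphorylated fluorescein-LRRKtide (400 nM) with 25 μM ATP in 50 mM Tris pH 8.5, 5 mM MgCl2, 1 mM EGTA, 0.01% Brij-35, 2 mM DTT for 60 min at RT. After EDTA stop, Tb-anti-pERM TR-FRET (520/495 nm ratio) was read. IC50 values came from 11-point, 3-fold compound dilutions.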

[2] = target: T2, Recombinant wild type LRRK2 protein (Homo sapiens, UniProt Q5S007); test: LanthaScreen Kinase Activity Assay (TR-FRET), wild type LRRK2; format: biochemical; settings: 25 μM ATP, 400 nM LRRKtide, 2.9 nM kinase, 60 min at room temperature, read-out: LRRK2 WT IC50
T2 construct: purchased Life Technologies PR8604B
T2 sequence (Q5S007 whole entry): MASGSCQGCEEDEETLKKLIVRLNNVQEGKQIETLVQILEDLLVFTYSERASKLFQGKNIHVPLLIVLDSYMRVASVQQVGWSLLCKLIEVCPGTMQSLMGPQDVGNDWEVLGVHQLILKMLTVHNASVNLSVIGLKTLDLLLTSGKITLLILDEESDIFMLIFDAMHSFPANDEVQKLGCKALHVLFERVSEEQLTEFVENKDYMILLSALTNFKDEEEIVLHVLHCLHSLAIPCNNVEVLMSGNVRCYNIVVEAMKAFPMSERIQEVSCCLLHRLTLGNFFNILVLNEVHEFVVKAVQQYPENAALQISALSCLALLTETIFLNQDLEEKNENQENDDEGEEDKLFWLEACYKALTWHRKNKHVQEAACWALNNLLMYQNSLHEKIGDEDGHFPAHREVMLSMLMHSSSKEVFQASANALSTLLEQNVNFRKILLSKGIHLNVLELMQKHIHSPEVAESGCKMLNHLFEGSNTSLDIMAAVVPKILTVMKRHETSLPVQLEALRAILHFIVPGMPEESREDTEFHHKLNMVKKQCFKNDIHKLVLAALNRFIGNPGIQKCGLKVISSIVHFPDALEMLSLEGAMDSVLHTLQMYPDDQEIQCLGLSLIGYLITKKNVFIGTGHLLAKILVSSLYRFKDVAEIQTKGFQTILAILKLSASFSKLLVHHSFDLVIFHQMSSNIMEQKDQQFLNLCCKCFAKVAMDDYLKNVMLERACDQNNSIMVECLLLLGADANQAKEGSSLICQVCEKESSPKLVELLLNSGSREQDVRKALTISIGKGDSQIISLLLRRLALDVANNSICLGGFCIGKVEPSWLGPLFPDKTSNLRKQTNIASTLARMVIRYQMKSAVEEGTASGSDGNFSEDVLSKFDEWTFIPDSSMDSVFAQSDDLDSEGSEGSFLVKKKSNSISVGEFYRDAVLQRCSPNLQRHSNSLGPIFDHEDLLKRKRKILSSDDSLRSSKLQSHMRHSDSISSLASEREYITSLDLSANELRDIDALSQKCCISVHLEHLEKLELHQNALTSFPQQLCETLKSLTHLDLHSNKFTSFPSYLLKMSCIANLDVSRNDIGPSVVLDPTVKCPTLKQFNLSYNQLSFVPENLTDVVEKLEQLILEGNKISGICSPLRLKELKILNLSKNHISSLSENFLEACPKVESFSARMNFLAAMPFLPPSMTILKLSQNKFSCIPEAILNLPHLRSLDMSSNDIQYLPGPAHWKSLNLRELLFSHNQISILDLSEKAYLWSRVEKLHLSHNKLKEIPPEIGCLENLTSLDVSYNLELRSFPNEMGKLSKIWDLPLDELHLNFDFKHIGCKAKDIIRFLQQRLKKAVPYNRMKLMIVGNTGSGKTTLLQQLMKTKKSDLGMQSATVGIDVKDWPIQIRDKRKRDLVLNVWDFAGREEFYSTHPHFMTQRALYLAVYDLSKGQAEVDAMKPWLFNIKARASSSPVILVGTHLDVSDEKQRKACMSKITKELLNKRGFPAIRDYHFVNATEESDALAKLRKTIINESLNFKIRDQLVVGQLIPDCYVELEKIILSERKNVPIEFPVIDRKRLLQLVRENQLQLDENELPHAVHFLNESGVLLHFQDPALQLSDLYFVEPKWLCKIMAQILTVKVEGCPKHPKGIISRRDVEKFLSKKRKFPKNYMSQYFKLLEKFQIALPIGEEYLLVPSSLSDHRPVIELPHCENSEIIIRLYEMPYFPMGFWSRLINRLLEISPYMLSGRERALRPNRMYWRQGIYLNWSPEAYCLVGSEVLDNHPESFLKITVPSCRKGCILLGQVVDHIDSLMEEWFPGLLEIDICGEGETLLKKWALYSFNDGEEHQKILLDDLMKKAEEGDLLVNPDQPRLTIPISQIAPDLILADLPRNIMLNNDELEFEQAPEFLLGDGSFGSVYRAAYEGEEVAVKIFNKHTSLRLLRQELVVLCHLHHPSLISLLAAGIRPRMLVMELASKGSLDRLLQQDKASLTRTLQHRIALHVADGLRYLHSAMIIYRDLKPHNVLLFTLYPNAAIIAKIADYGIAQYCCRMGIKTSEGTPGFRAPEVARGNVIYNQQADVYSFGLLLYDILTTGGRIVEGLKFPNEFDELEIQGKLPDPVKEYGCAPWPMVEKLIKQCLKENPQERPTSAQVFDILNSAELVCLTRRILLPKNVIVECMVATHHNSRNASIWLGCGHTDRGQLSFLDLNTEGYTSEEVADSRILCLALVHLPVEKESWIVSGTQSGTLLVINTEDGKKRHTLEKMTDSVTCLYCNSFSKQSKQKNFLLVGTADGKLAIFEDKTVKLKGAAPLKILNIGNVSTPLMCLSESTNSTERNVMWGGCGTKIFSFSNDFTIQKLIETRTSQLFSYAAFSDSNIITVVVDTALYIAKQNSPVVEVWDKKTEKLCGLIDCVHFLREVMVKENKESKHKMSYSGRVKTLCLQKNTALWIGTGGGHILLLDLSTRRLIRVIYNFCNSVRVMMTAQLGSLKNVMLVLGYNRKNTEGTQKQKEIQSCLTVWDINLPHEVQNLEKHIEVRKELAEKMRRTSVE
How it was run: as §1

T1 sequence (Q5S007 whole entry G2019S): as the sequence (Q5S007 whole entry) above, with G2019S counted along it

Structure (SMILES)	IC50 [1] [nM]	IC50 ([2]; class symbols) [nM]	IC50 ([2]; numeric bound instead of class symbol) [nM]
Cc1cc2nn(C)nc2cc1C(=O)Nc1ccc2[nH]nc(C)c2c1 [Example 3, 2,6-Dimethyl-N-(3-methyl-1H-indazol-5-yl)-2H-benzo[d][1,2,3]triazole-5-carboxamide]	1000 to 10000	1000 to 10000	
O=C(Nc1ccc2[nH]nc(-c3ccoc3)c2c1)c1ccn2ccnc2c1 [Example 118, N-(3-(Furan-3-yl)-1H-indazol-5-yl)imidazo[1,2-a]pyridine-7-carboxamide]	100 to 1000	100 to 1000	
Cc1cc(-c2n[nH]c3ccc(NC(=O)c4c(F)cc5c(cnn5C)c4F)cc23)ccn1 [Example 37, 4,6-Difluoro-1-methyl-N-(3-(2-methylpyridin-4-yl)-1H-indazol-5-yl)-1H-indazole-5-carboxamide]	≤ 100	≤ 100	
O=C(Nc1ccc2[nH]nc(-c3ccoc3)c2c1)c1ccc2ncsc2n1 [Example 122, N-(3-(Furan-3-yl)-1H-indazol-5-yl)thiazolo[5,4-b]pyridine-5-carboxamide]	≤ 100	≤ 100	
Cc1cn2cncc2cc1C(=O)Nc1ccc2[nH]nc(-c3ccco3)c2c1 [Example 154, N-(3-(Furan-2-yl)-1H-indazol-5-yl)-6-methylimidazo[1,5-a]pyridine-7-carboxamide]	≤ 100	≤ 100	
Cc1cccc(-c2n[nH]c3ccc(NC(=O)c4c(F)cc5c(cnn5C)c4F)cc23)n1 [Example 71, 4,6-Difluoro-1-methyl-N-(3-(6-methylpyridin-2-yl)-1H-indazol-5-yl)-1H-indazole-5-carboxamide]	≤ 100	100 to 1000	
Cc1cc2[nH]cnc2cc1C(=O)Nc1ccc2[nH]nc(-c3ccccc3)c2c1 [Example 19, 6-Methyl-N-(3-phenyl-1H-indazol-5-yl)-1H-benzo[d]imidazole-5-carboxamide]	≤ 100	100 to 1000	
Cn1cnc2cc(C(=O)Nc3ccc4[nH]nc(-c5ccoc5)c4c3)ccc21 [Example 132, N-(3-(Furan-3-yl)-1H-indazol-5-yl)-1-methyl-1H-benzo[d]imidazole-5-carboxamide]	100 to 1000	100 to 1000	
O=C(Nc1ccc2[nH]nc(-c3ccoc3)c2c1)c1ccc2ncsc2c1 [Example 123, N-(3-(Furan-3-yl)-1H-indazol-5-yl)benzo[d]thiazole-6-carboxamide]	≤ 100	100 to 1000	
Cc1cc2cnnn2c(C)c1C(=O)Nc1ccc2[nH]nc(-c3ccccc3)c2c1 [Example 48, 5,7-Dimethyl-N-(3-phenyl-1H-indazol-5-yl)-[1,2,3]triazolo[1,5-a]pyridine-6-carboxamide]	≤ 100	≤ 100	
O=C(Nc1ccc2[nH]nc(-c3ccoc3)c2c1)c1cnc2ccnn2c1 [Example 130, N-(3-(Furan-3-yl)-1H-indazol-5-yl)pyrazolo[1,5-a]pyrimidine-6-carboxamide]	100 to 1000	100 to 1000	
Cc1noc(C)c1-c1n[nH]c2ccc(NC(=O)c3c(F)cc4c(cnn4C)c3F)cc12 [Example 36, N-(3-(3,5-Dimethylisoxazol-4-yl)-1H-indazol-5-yl)-4,6-difluoro-1-methyl-1H-indazole-5-carboxamide]	1000 to 10000		> 10000
Cc1cn2cnnc2c(C)c1C(=O)Nc1ccc2[nH]nc(C)c2c1 [Example 58, 6,8-Dimethyl-N-(3-methyl-1H-indazol-5-yl)-[1,2,4]triazolo[4,3-a]pyridine-7-carboxamide]	100 to 1000	1000 to 10000	
Cn1cc(-c2n[nH]c3ccc(NC(=O)c4c(F)cc5c(cnn5C)c4F)cc23)cn1 [Example 35, 4,6-Difluoro-1-methyl-N-(3-(1-methyl-1H-pyrazol-4-yl)-1H-indazol-5-yl)-1H-indazole-5-carboxamide]	≤ 100	≤ 100	
Cn1ncc2cc(C(=O)Nc3ccc4[nH]nc(-c5ccccc5)c4c3)ccc21 [Example 107, 1-Methyl-N-(3-phenyl-1H-indazol-5-yl)-1H-indazole-5-carboxamide]	100 to 1000	1000 to 10000	
Cc1cc2cnnn2c(C)c1C(=O)Nc1ccc2[nH]nc(-c3ccoc3)c2c1 [Example 150, N-(3-(Furan-3-yl)-1H-indazol-5-yl)-5,7-dimethyl-[1,2,3]triazolo[1,5-a]pyridine-6-carboxamide]	≤ 100	≤ 100	
O=C(Nc1ccc2[nH]nc(-c3ccoc3)c2c1)c1cnc2nccn2c1 [Example 129, N-(3-(Furan-3-yl)-1H-indazol-5-yl)imidazo[1,2-a]pyrimidine-6-carboxamide]	≤ 100	100 to 1000	
Cc1cc2cc[nH]c2cc1C(=O)Nc1ccc2[nH]nc(-c3ccccc3)c2c1 [Example 22, 5-Methyl-N-(3-phenyl-1H-indazol-5-yl)-1H-indole-6-carboxamide]	100 to 1000	1000 to 10000	

Structure (SMILES)	IC50 [1] [nM]	IC50 ([2]; class symbols) [nM]	IC50 ([2]; numeric bound instead of class symbol) [nM]
Cn1ncc2c(F)c(C(=O)Nc3ccc4[nH]nc(-c5ccccc5O)c4c3)c(F)cc21 [Example 75, 4,6-Difluoro-N-(3-(2-hydroxyphenyl)-1H-indazol-5-yl)-1-methyl-1H-indazole-5-carboxamide]	100 to 1000	1000 to 10000	
Cn1ncc2c(F)c(C(=O)Nc3ccc4[nH]nc(-c5ccno5)c4c3)c(F)cc21 [Example 137, 4,6-Difluoro-N-(3-(isoxazol-5-yl)-1H-indazol-5-yl)-1-methyl-1H-indazole-5-carboxamide]	≤ 100	≤ 100	
Cn1ncc2c(F)c(C(=O)Nc3ccc4[nH]nc(-c5cccnc5)c4c3)c(F)cc21 [Example 32, 4,6-Difluoro-1-methyl-N-(3-(pyridin-3-yl)-1H-indazol-5-yl)-1H-indazole-5-carboxamide]	≤ 100	≤ 100	
Cc1nc2cncn2c(C)c1C(=O)Nc1ccc2[nH]nc(I)c2c1 [Example 111, N-(3-Iodo-1H-indazol-5-yl)-2,4-dimethylimidazo[1,5-a]pyrimidine-3-carboxamide]	≤ 100	≤ 100	
Cc1n[nH]c2ccc(NC(=O)c3ccc4nnc(C)n4c3)cc12 [Example 8, 3-Methyl-N-(3-methyl-1H-indazol-5-yl)-[1,2,4]triazolo[4,3-a]pyridine-6-carboxamide]	1000 to 10000	1000 to 10000	
Cn1ncc2c(F)c(C(=O)Nc3ccc4[nH]nc(C5=CCCO5)c4c3)c(F)cc21 [Example 72, N-(3-(4,5-Dihydrofuran-2-yl)-1H-indazol-5-yl)-4,6-difluoro-1-methyl-1H-indazole-5-carboxamide]	100 to 1000	1000 to 10000	
Cc1cc2c(C)nnn2c(C)c1C(=O)Nc1ccc2[nH]nc(C)c2c1 [Example 65, 3,5,7-Trimethyl-N-(3-methyl-1H-indazol-5-yl)-[1,2,3]triazolo[1,5-a]pyridine-6-carboxamide]	100 to 1000	1000 to 10000	
Cc1cc2[nH]ncc2cc1C(=O)Nc1ccc2[nH]nc(-c3ccccc3)c2c1 [Example 21, 6-Methyl-N-(3-phenyl-1H-indazol-5-yl)-1H-indazole-5-carboxamide]	≤ 100	≤ 100	
Cc1cccc(-c2n[nH]c3ccc(NC(=O)c4c(C)cc5cnnn5c4C)cc23)c1C [Example 47, N-(3-(2,3-Dimethylphenyl)-1H-indazol-5-yl)-5,7-dimethyl-[1,2,3]triazolo[1,5-a]pyridine-6-carboxamide]	100 to 1000	1000 to 10000	
O=C(Nc1ccc2[nH]nc(-c3ccoc3)c2c1)c1ccc2nsnc2c1 [Example 120, N-(3-(Furan-3-yl)-1H-indazol-5-yl)benzo[c][1,2,5]thiadiazole-5-carboxamide]	≤ 100	100 to 1000	
Cc1n[nH]c2ccc(NC(=O)c3ccc4nn[nH]c4c3)cc12 [Example 9, N-(3-Methyl-1H-indazol-5-yl)-1H-benzo[d][1,2,3]triazole-6-carboxamide]	1000 to 10000	1000 to 10000	
Cn1cc2nc(C(=O)Nc3ccc4[nH]nc(-c5cnco5)c4c3)ccc2n1 [Example 166, 2-Methyl-N-(3-(oxazol-5-yl)-1H-indazol-5-yl)-2H-pyrazolo[4,3-b]pyridine-5-carboxamide]	≤ 100	100 to 1000	
CN(C)c1ccc(-c2n[nH]c3ccc(NC(=O)c4c(F)cc5c(cnn5C)c4F)cc23)cc1 [Example 87, N-(3-(4-(Dimethylamino)phenyl)-1H-indazol-5-yl)-4,6-difluoro-1-methyl-1H-indazole-5-carboxamide]	≤ 100	≤ 100	
Cn1ncc2c(F)c(C(=O)Nc3ccc4[nH]nc(-c5ccncn5)c4c3)c(F)cc21 [Example 73, 4,6-Difluoro-1-methyl-N-(3-(pyrimidin-4-yl)-1H-indazol-5-yl)-1H-indazole-5-carboxamide]	≤ 100	≤ 100	
O=C(Nc1ccc2[nH]nc(-c3ccccc3)c2c1)c1cc2[nH]ncc2cc1C(F)(F)F [Example 70, N-(3-Phenyl-1H-indazol-5-yl)-5-(trifluoromethyl)-1H-indazole-6-carboxamide]	≤ 100	100 to 1000	
Cc1cc(-c2n[nH]c3ccc(NC(=O)c4c(F)cc5c(cnn5C)c4F)cc23)n(C)n1 [Example 79, N-(3-(1,3-Dimethyl-1H-pyrazol-5-yl)-1H-indazol-5-yl)-4,6-difluoro-1-methyl-1H-indazole-5-carboxamide]	100 to 1000	1000 to 10000	
Cc1n[nH]c2ccc(NC(=O)c3ccn4cnnc4c3)cc12 [Example 5, N-(3-Methyl-1H-indazol-5-yl)-[1,2,4]triazolo[4,3-a]pyridine-7-carboxamide]	1000 to 10000	1000 to 10000	
